Read-outs that look alike come from different tables or passages of the source. Marks after values point to notes of the source that are not given here.

Consider four molecules from article PMC8761912, “Cryptosporidium parvum Pyruvate Kinase Inhibitors With in vivo Anti-cryptosporidial Efficacy” (Frontiers in Microbiology, 2022).

For data set [1], the target named is recombinant CpPyK (rCpPyK) protein (Cryptosporidium parvum, UniProt Q5CSM7). The experiment in a line: rCpPyK enzymatic activity inhibition assay (ATP detection, Cell Titer-Glo luminescence). Format: biochemical. The protocol: (§1) The in vitro enzymatic activity of the rCpPyK protein was determined by quantitating the amount of ATP produced by the transfer of a phosphate group from phosphoenolpyruvate to adenosine diphosphate (ADP) in the presence of varying concentrations of the recombinant protein (Figure 1A). A typical assay contained 0.5 mM phosphoenolpyruvate, 0.6 mM ADP, 50 mM Tris buffer pH 7.5, 60 mM MgSO4, 100 mM KCl, and varying concentrations of rCpPyK incubated for 3 h at room temperature. The ATP generated was detected in a reaction volume of 50 μl in white opaque-walled 96 well plates by the luciferase-based Cell Titer-Glo 2.0 reagent (Promega) following the manufacturer’s instructions. The enzyme kinetics of rCpPyK were determined by using varying phosphoenolpyruvate (0–8 mM) and ADP (0–2 mM) concentrations in an enzymatic reaction catalyzed by a fixed concentration of the recombinant protein (6 ng/μl). In all assays, reaction mixtures without rCpPyK were included as negative controls. Three independent assays were performed for each experiment, and samples were run in triplicate. The luminescence generated was recorded using a multi-mode microplate reader (Spectra Max iD3; Molecular Devices, United States). GraphPad PRISM® v8 software was used to fit the Michaelis–Menten model directly to the substrate-velocity data to determine the enzymatic kinetic parameters for rCpPyK.
The Diversity Set VI chemical library (Supplementary Table 1) was obtained from the National Cancer Institute (NCI)/Developmental Therapeutics Program (DTP) Open Repository collection of chemical compounds.^1 Compounds were individually reconstituted in molecular biology grade dimethyl sulfoxide (DMSO) from Sigma-Aldrich and stored at −20°C. From the library, 1,424 compounds were screened in 96-well plates using the rCpPyK catalyzed enzyme assay to identify potential CpPyK inhibitors. The reactions were performed in 50 μl reaction volume containing 0.5 mM phosphoenolpyruvate, 0.6 mM ADP, 50 mM Tris buffer pH 7.5, 60 mM MgSO4, 100 mM KCl, and 6 ng/μl of rCpPyK protein with or without compound. The concentration of DMSO in all reaction mixtures was 1% (v/v). Control reactions without rCpPyK protein were included for background subtraction. Following 3 h of incubation at room temperature, an equal volume of the Cell Titer-Glo 2.0 reagent was added to each well, and the luminescence produced was recorded as relative luminescence units (RLU) after 10 min of incubation using a multi-mode microplate reader (Spectra Max iD3; Molecular Devices, United States). The mean percent inhibition (MPI) of rCpPyK activity by each compound was derived by dividing the difference in luminescence (RLU) between the compound-treated wells and the DMSO-treated wells by the luminescence of the DMSO-treated wells and multiplying the product by 100:
(1) MPI=[(MeanRLUDMSO-treated-MeanRLUCompound-treated)÷MeanRLUDMSO-treated]×100.
Half maximal inhibitory concentration (IC50) values were determined by applying a non-linear regression analysis curve fit to the mean dose-response data for varying concentrations of each compound using GraphPad PRISM® v8. Reactions were performed in triplicate and repeated at least thrice.
For orientation: Cellular ATP, detected with luciferase, serves as a proxy for viable cell number.

Data set [2] can be described thus: In vitro compound cytotoxicity assay (WST-1). It counts as cell-based. The conditions noted are these: human, uninfected HCT-8 cells. The protocol: Compounds were tested for cytotoxicity in human ileocecal colorectal adenocarcinoma cells [HCT-8 (HRT-18); ATCC® CCL-244™, CVCL_2478] by using the cell proliferation reagent WST-1 (Roche) according to the manufacturer’s protocol. The WST-1 assay is a quantitative colorimetric assay for measurement of metabolically active cells. This assay is based on the reduction of the tetrazolium salt (WST-1) by viable cells. About 5 × 10^4 HCT-8 cells were seeded per well in 96-well plates and grown overnight in 200 μl of RPMI-1640 medium (without phenol red) (Gibco) supplemented with 2.5 g/L of glucose, 1 mM sodium pyruvate, 1.5 g/L of sodium bicarbonate, 10% heat-inactivated FBS (Gibco), and 1 × Antibiotic-Antimycotic (Gibco) at 37°C with 5% CO2 in a humidified incubator. Upon reaching 80–90% confluency, cells were treated with the chemical compounds reconstituted in DMSO for 24 h. The volume of DMSO was kept below 1% of the total culture volume in all the wells to avoid DMSO cytotoxicity. Control wells received equivalent volumes of DMSO used in the reconstituted compounds. After 24 h of culture, 10 μl of the WST-1 reagent was added to each well, and the plates were incubated for 1 h at 37°C with 5% CO2 under dark conditions. The plates were shaken thoroughly and 150 μl of the medium from each well was transferred to a new clear flat-bottom black 96-well plate (Corning). Absorbance was read at a test wavelength of 440 nm and a reference wavelength of 690 nm using a multi-mode microplate reader (Spectra Max iD3; Molecular Devices, United States). The mean percent toxicity (MPT) of each compound was derived by dividing the difference in absorbance (OD) between the compound-treated cells and the DMSO-treated cells by the absorbance from the DMSO-treated cells and multiplying the product by 100:
(2) MPT=[(MeanODDMSO-treated-MeanODCompound-treated)÷MeanODDMSO-treated]×100.
The half maximal cytotoxic concentration (CC50) values were determined by using non-linear regression analysis in GraphPad PRISM® v8. Assays were performed in triplicate and repeated three times.
Background: Formazan colour is commonly taken as a measure of viable cells.

Data set [3] concerns C. parvum. The experiment in a line: In vitro anti-Cryptosporidium activity in infected HCT-8 cells (immunofluorescence assay). Format: cell-based, Cryptosporidium parvum. The conditions noted are these: for effect on in vitro proliferation and viability of C. parvum: 25 μM, added immediately after infection, 48 h of culture, vs untreated parasites; for EC50: Cryptosporidium parvum; for effect on proliferation of intracellular C. parvum in HCT-8 cells: varying concentrations, 0 h or 2 h PI, analysed 48 h PI, vs infected cultures without compound. The protocol: Once confluent, the cells were infected with 10^5 freshly excysted C. parvum sporozoites per well, immediately followed by the addition of anti-CpPyK compounds (reconstituted in DMSO) to one set of wells. Control infected cells were treated with DMSO volumes equivalent to those used for the compound-treated cultures. Paromomycin reconstituted in distilled sterile water, served as a positive control at a concentration of 200 μM. […] Briefly, the medium was removed from the culture wells, and the cells were washed two times with PBS before fixation with pre-chilled methanol-acetic acid (9:1) for 5 min at room temperature. Residual fixative was removed by rinsing the wells with PBS. Cells were rehydrated and permeabilized by washing twice with a buffer containing 0.1% Triton X-100, 0.35 M NaCl, and 0.13 M Tris-base, pH 7.6. Normal goat serum (5% in PBS) was used as a blocking agent, and the cell monolayer was stained with a fluorescein-labeled anti-C. parvum polyclonal antibody (Sporo-Glo™; Waterborne, Inc.) overnight at 4°C. The stained cells were washed twice with PBS followed by the addition of 200 μl water to each well. Plates were then imaged with an inverted fluorescence microscope using a 20× objective. The fluorescence generated by intracellular C. parvum parasites was quantified from nine microscopic fields per well of a 96-well plate using the batch process function in ImageJ version v1.50 (NIH, United States) after setting a threshold for the detection of parasites. Control wells with uninfected monolayers were included for background subtraction. Experiments were performed in triplicate and repeated at least three times.
One set of wells with confluent HCT-8 cells received CpPyK inhibitors immediately after C. parvum infection, while the same compounds were added to the other set of wells 2 h post-infection (PI). Control infected cells were treated with varying volumes of DMSO equivalent to the ones used for the compound-treated cultures. Cell monolayers were processed for immunofluorescence analysis after 48 h of incubation as described above. Samples were run in triplicate and three independent assays were performed. EC50 values were calculated using non-linear regression analysis of the mean dose-response curve data in GraphPad PRISM® v8.

A short description of data set [4]: Physicochemical properties adapted from PubChem. The conditions noted are these: based on Supplementary Table 2 properties. An excerpt:
Supplementary Table S2. Physicochemical properties of identified CpPyK inhibitors (Adapted from: https://pubchem.ncbi.nlm.nih.gov).
NSC Molecular Molecular Number of Number of Number of Polar number IUPAC name formula weight cLog(p) Hydrogen bond Hydrogen bond rotatable surface donors acceptors bonds area (Å²) […]

Data set [5] in a line: Solubility. It counts as physicochemical. The conditions noted are these: solvent not stated.
The conditions of data set [6]: ref https://pubchem.ncbi.nlm.nih.gov, cited from earlier work; for Polar surface area: topological.
Data set [7] addresses T1, rCpPyK (Cryptosporidium parvum, UniProt Q5CSM7).
T1 sequence (Q5CSM7 7-532): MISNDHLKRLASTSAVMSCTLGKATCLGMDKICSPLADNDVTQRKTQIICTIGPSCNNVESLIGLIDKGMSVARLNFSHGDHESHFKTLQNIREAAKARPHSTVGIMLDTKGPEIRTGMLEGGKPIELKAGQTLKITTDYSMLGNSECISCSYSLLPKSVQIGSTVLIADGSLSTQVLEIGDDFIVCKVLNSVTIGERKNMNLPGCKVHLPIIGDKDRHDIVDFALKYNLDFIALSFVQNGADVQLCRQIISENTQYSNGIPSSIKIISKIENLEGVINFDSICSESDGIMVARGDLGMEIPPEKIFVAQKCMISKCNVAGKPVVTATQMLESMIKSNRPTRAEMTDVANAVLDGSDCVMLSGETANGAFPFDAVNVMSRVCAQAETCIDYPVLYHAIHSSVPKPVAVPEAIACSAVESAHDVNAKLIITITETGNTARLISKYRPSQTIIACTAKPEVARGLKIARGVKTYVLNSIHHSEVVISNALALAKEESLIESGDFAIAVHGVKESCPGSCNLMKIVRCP
The conditions noted are these: previously reported for CpPyK; ref Denton et al. (1996); cited from earlier work.

Substrate in data set [8]: C=C(OP(=O)(O)O)C(=O)O
The experiment in a line: rCpPyK enzyme kinetics on substrates (Michaelis–Menten). Format: biochemical, Cryptosporidium parvum. The conditions noted are these: other: 6 ng/μl rCpPyK, varying substrate; pH 7.5. The protocol:
as §1

Substrate in data set [9]: Nc1ncnc2c1ncn2[C@@H]1O[C@H](COP(=O)(O)OP(=O)(O)O)[C@@H](O)[C@H]1O
The description is as above. Format: biochemical, Cryptosporidium parvum. To be noted: other: 6 ng/μl rCpPyK, varying substrate; pH 7.5. The protocol:
as §1

[10] abbreviates: HCT-8, read-out: Anti-C. parvum EC50, 0 h PI.
Where [11] appears, read: HCT-8, read-out: Anti-C. parvum EC50, 2 h PI.

As usually defined, the IC50 is the concentration that gives 50% inhibition. Broadly, the CC50 is the concentration giving 50% cytotoxicity. Read a high CC50 as lower toxicity to the cells. As usually defined, the EC50 is the concentration at which the effect is half-maximal. Consider `CN(C)c1ccc(/C=C/C(=O)c2cc(Cl)ccc2O)cc1` [NSC11437, (E)-1-(5-chloro-2-hydroxyphenyl)-3-[4-(dimethylamino)phenyl]prop-2-en-1-one], for which the IC50 in data set [1] is 156 µM. The same molecule yielded a CC50 at 24 h in data set [2] of 612 µM. In [3], the “effect on in vitro proliferation and viability of C. parvum” value was “significant inhibitory effect”; the “effect on proliferation of intracellular C. parvum in HCT-8 cells” value was “significant (P < 0.05) concentration-dependent inhibitory effect”. Besides, in [3] (setting [10]), the EC50 is 23.8 µM. The EC50 in [3] (setting [11]) was 27.3 µM. In [4], the “conformity to Lipinski's and Veber's rules for drug-likeness” value is reported as “conform”. In addition, the solubility entry in data set [5] is recorded as “low solubility”. In addition, in data set [6], the “Number of Hydrogen bond acceptors” value is given as 3, the “Number of Hydrogen bond donors” value was 1 and the Polar surface area is given as 40.5 Å².

Consider `COc1cccc(/C=C2\CCc3ccccc3C2=O)c1` [NSC636718, (2E)-2-[(3-methoxyphenyl)methylidene]-3,4-dihydronaphthalen-1-one], for which, in data set [1] (6 ng/μl rCpPyK, 3 h at room temperature, read-out: Enzyme inhibition IC50), the 50% inhibitory concentration (IC50) was found to be 117 µM. In [2], this molecule registered a 50% cytotoxic concentration (CC50) at 24 h of 106 µM. Moreover, in data set [3], the “effect on in vitro proliferation and viability of C. parvum” value is “significant inhibitory effect”; the “effect on proliferation of intracellular C. parvum in HCT-8 cells” value was “significant (P < 0.05) concentration-dependent inhibitory effect”. In [3] (setting [10]), the half-maximal effective concentration (EC50) amounted to 33.8 µM. Further, the EC50 in [3] (setting [11]) is 33.6 µM. The “Selectivity index (CC50/EC50)” value in data set [3] (HCT-8 CC50 / anti-C. parvum EC50) worked out at 3.15. Besides, in data set [4], the “conformity to Lipinski's and Veber's rules for drug-likeness” value is reported as “conform”. Moreover, in [6], the “Number of Hydrogen bond acceptors” value is on record as 2, the “Number of Hydrogen bond donors” value is recorded as 0 and the Polar surface area is on record as 26.3 Å².

On to `C=C(OP(=O)(O)O)C(=O)O` [Phosphoenolpyruvate, phosphoenolpyruvate], for which, in [7], the Km was 320 µM and the Vmax was 6.82 nmol/µg/min.

B1: rCpPyK (Cryptosporidium parvum Iowa II) (protein)
chain: MISNDHLKRLASTSAVMSCTLGKATCLGMDKICSPLADNDVTQRKTQIICTIGPSCNNVESLIGLIDKGMSVARLNFSHGDHESHFKTLQNIREAAKARPHSTVGIMLDTKGPEIRTGMLEGGKPIELKAGQTLKITTDYSMLGNSECISCSYSLLPKSVQIGSTVLIADGSLSTQVLEIGDDFIVCKVLNSVTIGERKNMNLPGCKVHLPIIGDKDRHDIVDFALKYNLDFIALSFVQNGADVQLCRQIISENTQYSNGIPSSIKIISKIENLEGVINFDSICSESDGIMVARGDLGMEIPPEKIFVAQKCMISKCNVAGKPVVTATQMLESMIKSNRPTRAEMTDVANAVLDGSDCVMLSGETANGAFPFDAVNVMSRVCAQAETCIDYPVLYHAIHSSVPKPVAVPEAIACSAVESAHDVNAKLIITITETGNTARLISKYRPSQTIIACTAKPEVARGLKIARGVKTYVLNSIHHSEVVISNALALAKEESLIESGDFAIAVHGVKESCPGSCNLMKIVRCP
On to B1, for which, in data set [8], the Km is reported as 1.29 (0.32^a) mM and the Vmax was 12.1 µmol/min/mg. Moreover, in data set [9], the Km came to 0.04 mM and the Vmax came out at 4.64 µmol/min/mg.
